For assay [1], the target named is PDGFRβ (purified cytoplasmic domain PDGFR-b protein) (Homo sapiens (Human), UniProt P09619). Briefly: PDGFRβ Kinase Assay (biochemical, ELISA). The settings on record: 36 μM ATP, 60 minute incubation at 30° C.; read-out: PDGFRβ Enzyme Assay (IC50 nM). The procedure: (§1) Biochemical PDGFRβ kinase assays were performed in 96 well microtiter plates that were coated overnight with 75 μg of poly-Glu-Tyr (4:1) in 10 mM Phosphate Buffered Saline (PBS), pH 7.4. The coated plates were washed with 2 mls per well PBS+0.05% Tween-20 (PBS-T), blocked by incubation with PBS containing 1% BSA, then washed with 2 mls per well PBS-T prior to starting the reaction. Reactions were carried out in 100 μL reaction volumes containing 36 μM ATP in kinase buffer (50 mM Hepes buffer pH 7.4, 20 mM MgCl2, 0.1 mM MnCl2 and 0.2 mM Na3VO4). Test compounds were reconstituted in 100% DMSO and added to the reaction to give a final DMSO concentration of 5%. Reactions were initiated by the addition 20 ul per well of kinase buffer containing 200-300 ng purified cytoplasmic domain PDGFR-b protein (Millipore). Following a 60 minute incubation at 30° C., the reactions were washed 2 mls per well PBS-T. 100 μl of a monoclonal anti-phosphotyrosine antibody-peroxidase conjugate diluted 1:10,000 in PBS-T was added to the wells for 30 minutes. Following a 2 mls per well wash with PBS-Tween-20, 100 μl of O-Phenylenediamine Dihydrochloride in phosphate-citrate buffer, containing urea hydrogen peroxide, was added to the wells for 7-10 minutes as a colorimetric substrate for the peroxidase. The reaction was terminated by the addition of 100 μl of 2.5NH2SO4 to each well and read using a microplate ELISA reader set at 492 nm. IC50 values for compound inhibition were calculated directly from graphs of optical density (arbitrary units) versus compound concentration following subtraction of blank values.
PDGFRβ (purified cytoplasmic domain PDGFR-b protein), sequence (P09619 554-1106): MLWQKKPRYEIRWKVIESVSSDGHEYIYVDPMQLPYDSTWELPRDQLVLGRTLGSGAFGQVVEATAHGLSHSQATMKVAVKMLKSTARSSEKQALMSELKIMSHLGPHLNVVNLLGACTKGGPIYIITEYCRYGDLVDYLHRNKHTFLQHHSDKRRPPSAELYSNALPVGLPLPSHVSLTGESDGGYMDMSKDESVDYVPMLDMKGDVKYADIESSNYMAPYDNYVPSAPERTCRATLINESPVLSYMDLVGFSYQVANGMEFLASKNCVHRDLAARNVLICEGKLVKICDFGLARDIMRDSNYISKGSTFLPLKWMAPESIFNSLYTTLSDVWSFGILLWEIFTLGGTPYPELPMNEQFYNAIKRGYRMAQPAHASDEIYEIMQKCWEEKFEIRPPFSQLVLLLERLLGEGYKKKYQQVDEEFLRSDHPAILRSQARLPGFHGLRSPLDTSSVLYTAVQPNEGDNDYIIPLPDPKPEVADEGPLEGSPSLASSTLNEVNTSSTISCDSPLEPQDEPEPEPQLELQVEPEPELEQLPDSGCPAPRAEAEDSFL
For orientation: In an ELISA, binding on a coated surface is turned into a signal by an enzyme label.

The target in assay [2] is VEGFR1 (Homo sapiens (Human), UniProt P17948). The assay is described as follows: VEGFR1 Enzyme Assay. In kind it is biochemical.
VEGFR1, sequence (P17948 27-1338, species assumed): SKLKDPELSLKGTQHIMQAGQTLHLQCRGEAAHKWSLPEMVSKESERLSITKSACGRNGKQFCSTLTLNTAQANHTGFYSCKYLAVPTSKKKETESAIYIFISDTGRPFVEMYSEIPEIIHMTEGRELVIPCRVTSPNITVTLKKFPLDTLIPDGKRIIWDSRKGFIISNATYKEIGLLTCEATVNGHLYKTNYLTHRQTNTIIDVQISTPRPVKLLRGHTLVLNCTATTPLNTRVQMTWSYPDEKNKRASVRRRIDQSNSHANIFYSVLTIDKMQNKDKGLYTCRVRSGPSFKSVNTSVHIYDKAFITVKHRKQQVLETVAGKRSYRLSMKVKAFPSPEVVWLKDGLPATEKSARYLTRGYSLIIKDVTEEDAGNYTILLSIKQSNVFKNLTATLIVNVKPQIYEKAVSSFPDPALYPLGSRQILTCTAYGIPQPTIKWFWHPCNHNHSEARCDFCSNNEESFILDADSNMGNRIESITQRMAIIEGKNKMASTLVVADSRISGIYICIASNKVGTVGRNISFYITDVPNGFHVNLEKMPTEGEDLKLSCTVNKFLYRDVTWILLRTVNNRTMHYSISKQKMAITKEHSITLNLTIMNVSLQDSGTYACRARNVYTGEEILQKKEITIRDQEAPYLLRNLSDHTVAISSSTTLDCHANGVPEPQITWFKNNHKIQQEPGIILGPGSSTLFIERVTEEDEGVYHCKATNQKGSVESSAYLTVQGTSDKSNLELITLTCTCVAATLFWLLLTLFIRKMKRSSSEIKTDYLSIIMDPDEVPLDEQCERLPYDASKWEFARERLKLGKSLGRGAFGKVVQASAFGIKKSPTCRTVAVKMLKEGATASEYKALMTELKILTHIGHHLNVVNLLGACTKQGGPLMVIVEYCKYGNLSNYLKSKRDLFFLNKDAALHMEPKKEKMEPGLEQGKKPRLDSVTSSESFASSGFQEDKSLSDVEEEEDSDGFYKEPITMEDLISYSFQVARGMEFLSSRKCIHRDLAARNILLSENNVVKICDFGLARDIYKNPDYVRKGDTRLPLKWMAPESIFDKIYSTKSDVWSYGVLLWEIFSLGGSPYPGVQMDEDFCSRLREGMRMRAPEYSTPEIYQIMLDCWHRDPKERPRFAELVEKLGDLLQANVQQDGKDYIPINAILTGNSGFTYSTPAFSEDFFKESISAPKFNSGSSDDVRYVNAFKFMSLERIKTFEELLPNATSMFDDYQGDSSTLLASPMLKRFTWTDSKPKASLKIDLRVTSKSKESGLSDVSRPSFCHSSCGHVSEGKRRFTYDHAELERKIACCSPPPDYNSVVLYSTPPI
Assay [3] deals with VEGFR2 (purified cytoplasmic domain KDR protein) (Homo sapiens (Human), UniProt P35968). The assay is described as follows: VEGFR2 Kinase Assay (biochemical KDR kinase assay, ELISA). The settings on record: 2.7 μM ATP, 15 minute incubation at 30° C.; read-out: VEGFR2 Enzyme Assay (IC50 nM). The procedure:
as §1, with “KDR” for “PDGFRβ”, “μg/well” for “μg”, “Reactions were carried out in 100 μL reaction volumes containing 36 μM ATP in kinase buffer (50 mM Hepes buffer pH 7.4, 20 mM MgCl2, 0.1 mM MnCl2 and 0.2 mM Na3VO4). Test compounds were reconstituted in 100% DMSO and added to the reaction to give a final DMSO concentration of 5%.” left out, “KDR” for “PDGFR-b”, “(BPS Bioscience, San Diego, Calif.).” for “(Millipore).”, “15” for “60”

The structures appear in SMILES notation.

VEGFR2 (purified cytoplasmic domain KDR protein), sequence (P35968 786-1356): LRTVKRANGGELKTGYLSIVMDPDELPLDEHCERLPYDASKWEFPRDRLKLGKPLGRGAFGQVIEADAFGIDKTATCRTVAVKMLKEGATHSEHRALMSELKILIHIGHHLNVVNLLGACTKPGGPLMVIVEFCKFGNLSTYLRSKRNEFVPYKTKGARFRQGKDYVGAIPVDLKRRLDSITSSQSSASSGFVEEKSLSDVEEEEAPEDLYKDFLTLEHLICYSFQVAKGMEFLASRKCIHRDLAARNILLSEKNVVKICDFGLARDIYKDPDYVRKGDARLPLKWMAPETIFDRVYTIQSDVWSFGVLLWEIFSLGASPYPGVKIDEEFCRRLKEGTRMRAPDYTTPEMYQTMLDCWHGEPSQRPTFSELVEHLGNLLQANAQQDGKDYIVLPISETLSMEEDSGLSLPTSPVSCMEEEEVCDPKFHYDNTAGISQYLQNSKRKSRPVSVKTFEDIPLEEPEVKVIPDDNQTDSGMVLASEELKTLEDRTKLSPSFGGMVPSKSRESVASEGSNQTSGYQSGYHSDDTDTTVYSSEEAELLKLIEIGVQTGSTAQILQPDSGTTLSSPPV

Broadly, the IC50 is the concentration at which inhibition is half-maximal. With `Cc1cccc(NC(=O)Nc2ccc(-c3nsc(NC(=O)NCCCN4CCOCC4)c3C(N)=O)cc2)c1` [Example 5, 3-[4-({[(3-methylphenyl)amino]carbonyl}amino)phenyl]-5-({[(3-morpholin-4-ylpropyl)amino]carbonyl}amino)isothiazole-4-carboxamide], the IC50 in assay [1] was 10 nM.

In the case of `NC(=O)c1c(-c2ccc(NC(=O)c3cccc(C(F)(F)F)c3)cc2)nsc1NC(=O)NCCCN1CCOCC1` [Example 11, 5-({[(3-morpholin-4-ylpropyl)amino]carbonyl}amino)-3-(4-{[3-(trifluoromethyl)benzoyl]amino}phenyl)isothiazole-4-carboxamide], the IC50 in assay [2] and in assay [1] was above 1000 nM throughout.

`NC(=O)c1c(-c2cccc([N+](=O)[O-])c2)nsc1N` [Example 61, 5-Amino-3-(3-nitrophenyl)isothiazole-4-carboxamide]: in assay [3], the IC50 is above 10000 nM.

As to `NC(=O)c1c(-c2ccc(NC(=O)Nc3cc(C(F)(F)F)ccc3F)cc2)nsc1NC(=O)NCCCN1CCOCC1` [Example 6, 3-{4-[({[2-fluoro-5-(trifluoromethyl)phenyl]amino}carbonyl)amino]phenyl}-5-({[(3-morpholin-4-ylpropyl)amino]carbonyl}amino)isothiazole-4-carboxamide], the IC50 in assay [1] amounted to 24 nM.

Regarding `NC(=O)c1c(-c2ccc(N)cc2)nsc1NC(=O)NCCCN1CCCC1` [Example 67, 3-(4-Aminophenyl)-5-({[(3-pyrrolidin-1-ylpropyl)amino]carbonyl}amino)isothiazole-4-carboxamide], in assay [3], the IC50 is above 1000 nM.

For `NC(=O)c1c(-c2ccc(N)cc2)nsc1NC(=O)NCCCN1CCOCC1` [Example 2, 3-(4-aminophenyl)-5-({[(3-morpholin-4-ylpropyl)amino]carbonyl}amino)isothiazole-4-carboxamide], the IC50 in assay [1] is above 10000 nM.

For the molecule `Cc1ccc(F)c(NC(=O)Nc2ccc(-c3nsc(NC(=O)NCCCN4CCOCC4)c3C(N)=O)cc2)c1` [Example 4, 3-[4-({[(2-fluoro-5-methylphenyl)amino]carbonyl}amino)phenyl]-5-({[(3-morpholin-4-ylpropyl)amino]carbonyl}amino)isothiazole-4-carboxamide], the IC50 in assay [1] came out at 47 nM.

In the case of `NC(=O)c1c(-c2cccc(NC(=O)Nc3ccccc3)c2)nsc1N` [Example 65, 5-Amino-3-{3-[(anilinocarbonyl)amino]phenyl}isothiazole-4-carboxamide], the IC50 in assay [3] is above 10000 nM; in assay [1], above 1000 nM.

In the case of `NC(=O)c1c(-c2cccc(N)c2)nsc1N` [Example 62, 5-Amino-3-(3-aminophenyl)isothiazole-4-carboxamide], in assay [3], the IC50 is above 10000 nM.

Take `Cc1ccc(NC(=O)Nc2ccc(-c3nsc(NC(=O)NCCCC(=O)O)c3C(N)=O)cc2)cc1` [Example 48, 4-{[({4-(Aminocarbonyl)-3-[4-({[(4-methylphenyl)amino]carbonyl}amino)phenyl]isothiazol-5-yl}amino)carbonyl]amino}butanoic acid]: the IC50 in assay [1] worked out at 10 nM.

For the molecule `Cc1ccc(NC(=O)Nc2ccc(-c3nsc(NC(=O)NCCCN4CCOCC4)c3C(N)=O)cc2)cc1` [Example 7, 3-[4-({[(4-methylphenyl)amino]carbonyl}amino)phenyl]-5-({[(3-morpholin-4-ylpropyl)amino]carbonyl}amino)isothiazole-4-carboxamide], the IC50 in assay [1] came out at 12 nM.

In the case of `Cc1ccc(NC(=O)Nc2ccc(-c3nsc(NC(=O)NCCCN4CCCC4)c3C(N)=O)cc2)cc1` [Example 68, 3-[4-({[(4-Methylphenyl)amino]carbonyl}amino)phenyl]-5-({[(3-pyrrolidin-1-ylpropyl)amino]carbonyl}amino)isothiazole-4-carboxamide], in assay [1], the IC50 worked out at 12 nM.

For the molecule `COCCCNC(=O)Nc1snc(-c2ccc(N)cc2)c1C(N)=O` [Example 9, 3-(4-aminophenyl)-5-({[(3-methoxypropyl)amino]carbonyl}amino)isothiazole-4-carboxamide], the half-maximal inhibitory concentration (IC50) was above 1000 nM in assay [2] and above 10000 nM in assay [1].

For the molecule `NC(=O)c1c(-c2ccc([N+](=O)[O-])cc2)nsc1NC(=O)NCCCN1CCOCC1` [Example 1, 5-({[(3-morpholin-4-ylpropyl)amino]carbonyl}amino)-3-(4-nitrophenyl)isothiazole-4-carboxamide], the IC50 in assay [3], in assay [2] and in assay [1] was above 10000 nM each time.

Take `NC(=O)c1c(-c2cccc(NC(=O)c3cccc(C(F)(F)F)c3)c2)nsc1N` [Example 64, 5-Amino-3-(3-{[3-(trifluoromethyl)benzoyl]amino}phenyl)isothiazole-4-carboxamide]: in assay [1], the IC50 turned out to be 844 nM.

`NC(=O)c1c(-c2ccc(NC(=O)Nc3ccccc3)cc2)nsc1NC(=O)NCCCN1CCOCC1` [Example 3, 3-{4-[(anilinocarbonyl)amino]phenyl}-5-({[(3-morpholin-4-ylpropyl)amino]carbonyl}amino)isothiazole-4-carboxamide]: the IC50 in assay [1] worked out at 21 nM.

In the case of `Cc1ccc(NC(=O)Nc2ccc(-c3nsc(NC(=O)NCCCO)c3C(N)=O)cc2)cc1` [Example 56, 5-({[(3-Hydroxypropyl)amino]carbonyl}amino)-3-[4-({[(4-methylphenyl)amino]carbonyl}amino)phenyl]isothiazole-4-carboxamide], the IC50 in assay [1] was 13 nM.

With `NC(=O)c1c(-c2ccc(N)cc2)nsc1N` [Example 58, 5-Amino-3-(4-aminophenyl)isothiazole-4-carboxamide], in assay [3], the IC50 is above 10000 nM.

As to `Cc1ccc(F)c(NC(=O)Nc2ccc(-c3snc(N)c3C(N)=O)cc2)c1` [Example 69, 3-Amino-5-[4-({[(2-fluoro-5-methylphenyl)amino]carbonyl}amino)phenyl]isothiazole-4-carboxamide], in assay [1], the IC50 was 48 nM.

In the case of `Cc1ccc(NC(=O)Nc2ccc(-c3nsc(N)c3C(N)=O)cc2)cc1` [Example 59, 5-Amino-3-[4-({[(4-methylphenyl)amino]carbonyl}amino)phenyl]isothiazole-4-carboxamide], in assay [1], the IC50 was determined as 60 nM.

Consider `Cc1ccc(F)c(NC(=O)Nc2ccc(-c3nsc(N)c3C(N)=O)cc2)c1` [Example 60, 5-Amino-3-[4-({[(2-fluoro-5-methylphenyl)amino]carbonyl}amino)phenyl]isothiazole-4-carboxamide], for which the IC50 in assay [1] stood at 70 nM.

On to `Cc1ccc(F)c(NC(=O)Nc2ccc(-c3snc(NCCCN4CCOCC4)c3C(N)=O)cc2)c1` [Example 70, 5-[4-({[(2-Fluoro-5-methylphenyl)amino]carbonyl}amino)phenyl]-3-[(3-morpholin-4-ylpropyl)amino]isothiazole-4-carboxamide], for which the IC50 in assay [1] amounted to 70 nM.

As to `NC(=O)c1c(-c2ccc([N+](=O)[O-])cc2)nsc1NC(=O)N1CCCC1=O` [Example 45, 3-(4-Nitro-phenyl)-5-[(2-oxo-pyrrolidine-1-carbonyl)-amino]-isothiazole-4-carboxylic acid amide], the IC50 in assay [3] is above 10000 nM.

The values are drawn from US8969583B2, “3-phenyl-5-ureidoisothiazole-4-carboximide and 3-amino-5-phenylisothiazole derivatives as kinase inhibitors” (Allergan, Inc., priority 2011, dated 2015).
